Source: US5994569A, “Dihomo-seco-cholestanes” (Hoffmann-La Roche Inc., priority 1997, dated 1999)
Read-outs that look alike come from different tables or passages of the source.

System: IL-12 production
Test: In vitro Assay for IL-12 Inhibition (IL-12 production by THP-1 cells or human peripheral whole blood, ELISA)
Type: cell-based
Conditions: read-out: IC50 values for the inhibition of IL-12 production
[1] = THP-1 cells stimulated with SAC and huIFN-γ (1000 U/ml), or alternatively human peripheral whole blood primed with huIFN-γ then SAC, supernatants after 48 hours, IL-12 by ELISA

Row | Structure (SMILES) | IC50 (Homo sapiens, THP-1, 48 h) | IC50 [1]
1 | C=C1/C(=C\C=C2/CCC[C@]3(C)[C@@H]([C@H](C)CCCC(C)(C)O)CC[C@@H]23)C[C@@H](O)C[C@@H]1O [Calcitriol, reference compound] | 60 nM | –
2 | C=C1C(=CC=C2CCCC3(C)C2CCC3C(C)CC=CC=CC(C)(C)O)CC(O)CC1O [Example 1, (5Z,7E ,23E,24aE)-(1R,3S)-24a,24b-dihomo-9,10-seco-cholesta-5,7,10(19),23,24a-pentaene-1,3,25-triol] | – | 10 nM
3 | C=C1/C(=C\C=C2/CCC[C@]3(C)[C@@H]([C@H](C)C/C=C/C=C/C(C)(C)O)CC[C@@H]23)C[C@H](O)C[C@@H]1O [Example 3, (5Z,7E,23E,24aE)-(1S,3S)-24a,24b-Dihomo-9,10-seco-cholesta-5,7,10(19),23,24a-pentaene-1,3,25-triol] | – | 30 nM
4 | C=C1/C(=C\C=C2/CCC[C@]3(C)[C@@H]([C@H](C)C/C=C/C=C/C(C)(C)O)CCC[C@@H]23)C[C@@H](O)C[C@@H]1O [Example 4, (5Z,7E,23E,24aE)-(1S,3R)-17a,24a,24b-trihomo-9,10-seco-cholesta-5,7,10(19),23,24a-pentaene-1,3,25-triol] | – | 1 nM
5 | C=C1/C(=C\C=C2/CCC[C@]3(C)C([C@H](C)C/C=C/C=C/C(C)(C)O)=CCC[C@@H]23)C[C@@H](O)C[C@@H]1O [Example 8, (5Z,7E,23E,24aE)-(1S,3R)-17a,24a,24b-Trihomo-9,10-seco-cholesta-5,7,10(19),17,23,24a-hexaene-1,3,25-triol] | – | 1 nM
6 | C[C@H](CC=CC#CC(C)(C)O)[C@H]1CC[C@H]2/C(=C/C=C3C[C@@H](O)C[C@H](O)C3)CCC[C@]12C [Example 13a, (7E,23E)- and (7E,23Z)-(1R,3R)-24a,24b-dihomo-19-nor-9,10-seco-cholesta-5,7,23-trien-24a-yne-1,3,25-triol] | – | 10 nM
7 | C[C@H](CC=CC#CC1(O)CCCC1)[C@H]1CC[C@H]2/C(=C/C=C3C[C@@H](O)C[C@H](O)C3)CCC[C@]12C [Example 13c, (7E,23E)- and (7E,23Z)-(1R,3R)-25-(1-hydroxy-cyclopentyl)-24a,24b-dihomo-19-nor-9,10-seco-cholesta-5,7,23-trien-24a-yne-1,3,25-diol] | – | 10 nM
8 | C[C@H](CC=CC#CC(O)(C(F)(F)F)C(F)(F)F)[C@H]1CC[C@H]2/C(=C/C=C3C[C@@H](O)C[C@H](O)C3)CCC[C@]12C [Example 13d, (7E,23E)- and (7E,23Z)-(1R,3R)-26,26,26,27,27,27-hexafluoro-24a,24b-dihomo-19-nor-9,10-seco-cholesta-5,7,23-trien-24a-yne-1,3,25-triol] | – | 10 nM
9 | CCC(O)(/C=C/C=CC[C@@H](C)[C@H]1CC[C@H]2/C(=C/C=C3C[C@@H](O)C[C@H](O)C3)CCC[C@]12C)CC [Example 13e, (7E,23E24aE)- and (7E,23Z,24aE)-(1R,3R)-24a,24b,26a,26b-tetrahomo-19-nor-9,10-seco-cholesta-5,7,23,24a-tetraen-24a-yne-1,3,25-triol] | – | 1 nM
10 | C[C@H](CC=C/C=C/C1(O)CCCC1)[C@H]1CC[C@H]2/C(=C/C=C3C[C@@H](O)C[C@H](O)C3)CCC[C@]12C [Example 13f, (7E,23E,24aE)- and (7E,23Z,24aE)-(1R,3R)-25-(1-hydroxy-cyclopentyl)-24a,24b-dihomo-19-nor-9,10-seco-cholesta-5,7,23,24a-tetraen-24a-yne-1,3,25-diol] | – | 10 nM
